Test results: ChEMBL document CHEMBL4680146, “Current progress in antimalarial pharmacotherapy and multi-target drug discovery” (Eur J Med Chem, 2020)
Converted amounts (≈) assume the structure as drawn. Values belong to the molecule of their own block, whether it stands above or below them.

What was measured:
Plasmodium falciparum [1] = assay: Antimalarial activity against chloroquine-sensitive Plasmodium falciparum F32(CQS)Tanzania incubated for 48 hrs by classical radioactive microdilution method; format: functional, organism-based
Plasmodium falciparum [2] = assay: Antimalarial activity against chloroquine-sensitive Plasmodium falciparum 3D7 infected in human red blood cells incubated for 48 hrs by [3H]-hypoxanthine incorporation assay; format: functional, organism-based, RBC; conditions: 3D7, Erythrocyte
Hemozoin = assay: Inhibition of beta-hematin assessed as heme alkylation at 2 molar equivalents incubated for 30 mins by HPLC analysis relative to control; set-up: scale not given: the % may be the effect or the level left
Plasmodium falciparum [3] = assay: Antimalarial activity against multi-resistant Plasmodium falciparum infected in human erythrocytes assessed as inhibition of [G-3H]hypoxanthine uptake incubated for 42 hrs by liquid scintillation counting method; format: functional, organism-based; conditions: Erythrocyte
Plasmodium vivax [4] = assay: Antimalarial activity against Plasmodium vivax infected in human blood incubated for 40 to 44 hrs; format: functional, organism-based
Plasmodium falciparum [5] = assay: Antimalarial activity against Plasmodium falciparum infected in human erythrocytes assessed as inhibition of [G-3H]hypoxanthine uptake incubated for 42 hrs by liquid scintillation spectrometry; format: functional, organism-based; conditions: Erythrocyte
Plasmodium falciparum [6] = assay: Antimalarial activity against chloroquine-sensitive Plasmodium falciparum 3D7 by SyBR Green method
Plasmodium vivax [7] = assay: Antimalarial activity against Plasmodium vivax infected in human blood incubated for 24 to 36 hrs; format: functional, organism-based
[8] = Inhibition of Plasmodium falciparum DHODH expressed in Escherichia coli BL21(DE3) using L-dihydroorotate as substrate measured every 90 secs for 45 mins by absorbance method
Plasmodium falciparum [9] = assay: Antimalarial activity against ring stage Plasmodium falciparum 3D7 measured for 72 hrs by absorbance method; format: functional, organism-based; conditions: 3D7, 72 h
Plasmodium falciparum [10] = assay: Antimalarial activity against trophozoite stage Plasmodium falciparum 3D7 harboring NLuc infected in human erythrocytes assessed as inhibition of new permeability pathway by measuring infected erythrocytes sensitivity to sorbitol-mediated lysis by luminescence method; format: functional, organism-based; conditions: 3D7, Erythrocyte
Plasmodium falciparum [11] = assay: Antimalarial activity against Plasmodium falciparum 3D7A asexual forms assessed as inhibition of [G-3H]hypoxanthine uptake incubated for 24 hrs followed by [G-3H]hypoxanthine addition and measured after 18 hrs by liquid scintillation spectrometry; format: functional, organism-based
Falcipain 2 = molecular target: T1, Falcipain 2 (Plasmodium falciparum, UniProt Q9N6S8); assay: Inhibition of Plasmodium falciparum FP-2
T1 sequence (Q9N6S8 whole entry): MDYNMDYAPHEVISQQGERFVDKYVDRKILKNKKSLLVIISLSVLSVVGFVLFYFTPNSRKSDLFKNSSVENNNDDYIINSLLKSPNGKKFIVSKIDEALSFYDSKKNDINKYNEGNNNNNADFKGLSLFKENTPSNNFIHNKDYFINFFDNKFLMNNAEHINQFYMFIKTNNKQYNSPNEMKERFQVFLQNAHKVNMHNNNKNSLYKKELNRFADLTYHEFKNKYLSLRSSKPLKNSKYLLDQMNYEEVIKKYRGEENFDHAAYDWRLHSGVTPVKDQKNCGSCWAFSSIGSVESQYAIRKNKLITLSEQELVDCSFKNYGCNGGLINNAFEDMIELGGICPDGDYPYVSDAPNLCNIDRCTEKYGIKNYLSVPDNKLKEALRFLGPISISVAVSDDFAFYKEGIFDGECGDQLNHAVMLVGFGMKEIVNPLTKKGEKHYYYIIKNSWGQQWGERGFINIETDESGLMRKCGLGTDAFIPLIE

[12] = Inhibition of Plasmodium falciparum DHFR
Plasmodium falciparum [13] = assay: Antimalarial activity against chloroquine-resistant Plasmodium falciparum Dd2; format: functional, organism-based
Plasmodium falciparum [14] = assay: Antimalarial activity against chloroquine-resistant Plasmodium falciparum K1 infected in human erythrocytes assessed as inhibition of [G-3H]hypoxanthine uptake preincubated for 24 hrs followed by [G-3H]hypoxanthine addition and measured after 18 to 24 hrs by scintillation spectrometry; format: functional, organism-based; conditions: K1, Erythrocyte
Plasmodium falciparum [15] = assay: Antimalarial activity against chloroquine-resistant Plasmodium falciparum T996 infected in human erythrocytes assessed as inhibition of [G-3H]hypoxanthine uptake preincubated for 24 hrs followed by [G-3H]hypoxanthine addition and measured after 18 to 24 hrs by scintillation spectrometry; format: functional, organism-based; conditions: T996, Erythrocyte
Plasmodium falciparum [16] = assay: Antimalarial activity against Plasmodium falciparum 3D7 asexual forms incubated for 72 hrs by luminescence method; format: functional, organism-based; conditions: 3D7, 72 h

Compound: C[C@@H]1CC[C@H]2[C@@H](C)C(=O)O[C@@H]3O[C@@]4(C)CC[C@@H]1[C@]32OO4 [ARTEMISININ]
IC50 (Plasmodium falciparum [1]): 7 nM

Compound: C[C@@H]1CC[C@H]2[C@@H](C)C(OCCN3CC[N+](CCNc4ccnc5cc(Cl)ccc45)(CCOC4O[C@@H]5O[C@@]6(C)CC[C@H]7[C@H](C)CC[C@@H]([C@H]4C)[C@@]57OO6)CC3)O[C@@H]3O[C@@]4(C)CC[C@@H]1[C@]32OO4 (some centres undefined)
IC50 (Plasmodium falciparum [2]): 29.5 nM

Compound: CC(C)C1=C[C@H]2OC3(CCC(NCCNc4ccnc5cc(Cl)ccc45)CC3)OO[C@@]2(C)CC1 (some centres undefined)
Activity (Hemozoin): 60%

Compound: C[C@H]1c2cccc(O)c2C(=O)C2=C(O)[C@]3(O)C(=O)C(C(N)=O)=C(O)[C@@H](N(C)C)[C@@H]3[C@@H](O)[C@@H]21 [DOXYCYCLINE]
IC50 (Plasmodium falciparum [3]): 5100 nM

IC50 (Plasmodium vivax [4]): 0.01 µg/mL (≈ 0.0322 µM)
Compound: COc1ncnc(NS(=O)(=O)c2ccc(N)cc2)c1OC [SULFADOXINE]

IC50 (Plasmodium falciparum [5]): 81.3 nM
Compound: Clc1ccc2c(N3CCN(CCCN4CCN(c5ccnc6cc(Cl)ccc56)CC4)CC3)ccnc2c1 [PIPERAQUINE]

Compound: C[C@@H]1CC[C@H]2[C@@H](C)C(OCCN(CCCNc3ccnc4cc(Cl)ccc34)CCOC3O[C@@H]4O[C@@]5(C)CC[C@H]6[C@H](C)CC[C@@H]([C@H]3C)[C@@]46OO5)O[C@@H]3O[C@@]4(C)CC[C@@H]1[C@]32OO4 (some centres undefined)
IC50 (Plasmodium falciparum [2]): 8.7 nM

Compound: C[C@H]1[C@H](OC(=O)CCC(=O)O)O[C@@H]2O[C@@]3(C)CC[C@H]4[C@H](C)CC[C@@H]1[C@@]24OO3 [ARTESUNATE]
IC50 (Plasmodium falciparum [6]): 2 nM

IC50 (Plasmodium vivax [7]): 1620 nM
Compound: Nc1ccc(S(=O)(=O)c2ccc(N)cc2)cc1 [DAPSONE]

Compound: COc1cccc(NC(=O)CSc2nc(-c3ccccc3Cl)ns2)c1
EC50 [8]: 158000 nM
EC50 (Plasmodium falciparum [9]): 2480 nM
EC50 (Plasmodium falciparum [10]): 367 nM

IC50 (Plasmodium falciparum [11]): > 10000 nM
Compound: COc1cc(NC(C)CCCN)c2ncccc2c1 (centres undefined) [PRIMAQUINE]

Compound: Nc1ncc(NCc2ccc(CCNC(=O)c3ccc(F)cc3)cc2)c(N)n1
IC50 (Falcipain 2): 6800 nM
IC50 [12]: 8800 nM
IC50 (Plasmodium falciparum [13]): 1100 nM

Compound: CCN(CCO)CCCC(C)Nc1ccnc2cc(Cl)ccc12 (centres undefined) [HYDROXYCHLOROQUINE]
IC50 (Plasmodium falciparum [14]): 2220 nM
IC50 (Plasmodium falciparum [15]): 21.5 nM

Compound: CCc1nc(N)nc(N)c1-c1ccc(Cl)cc1 [PYRIMETHAMINE]
IC50 (Plasmodium falciparum [16]): 4.35 nM
IC50 (Plasmodium falciparum [13]): > 10000 nM

Compound: O=C(Nc1ccc(-c2cn3ccsc3n2)cc1)c1ccc(S(=O)(=O)N2CCCCCC2)cc1
EC50 [8]: > 250000 nM
EC50 (Plasmodium falciparum [10]): 222 nM

IC50 (Plasmodium falciparum [11]): 3.2 nM
Compound: CCCCN(CCCC)CC(O)c1cc(Cl)cc2c1-c1ccc(Cl)cc1/C2=C/c1ccc(Cl)cc1 (centres undefined) [LUMEFANTRINE]

Compound: C=C[C@H]1CN2CC[C@H]1C[C@H]2[C@H](O)c1ccnc2ccc(OC)cc12 [QUININE]
IC50 (Plasmodium falciparum [11]): 66 nM
